Data from patent US9547017B2, “Genetically encoded fluorescent sensors for detecting intracellular signalling through diacylglycerol pathways” (MONTANA MOLECULAR LLC, priority 2012, dated 2017).
“Also recorded” adds a separate entry of the source. Each block holds one molecule with its values, some of them ahead of it.

Legend:
P2Y11 receptor [1] = target: T1, P2Y11 receptor (Homo sapiens, UniProt Q96G91); settings: reported in reference (29), different cell line; cited from earlier work
T1 sequence (Q96G91 1-374): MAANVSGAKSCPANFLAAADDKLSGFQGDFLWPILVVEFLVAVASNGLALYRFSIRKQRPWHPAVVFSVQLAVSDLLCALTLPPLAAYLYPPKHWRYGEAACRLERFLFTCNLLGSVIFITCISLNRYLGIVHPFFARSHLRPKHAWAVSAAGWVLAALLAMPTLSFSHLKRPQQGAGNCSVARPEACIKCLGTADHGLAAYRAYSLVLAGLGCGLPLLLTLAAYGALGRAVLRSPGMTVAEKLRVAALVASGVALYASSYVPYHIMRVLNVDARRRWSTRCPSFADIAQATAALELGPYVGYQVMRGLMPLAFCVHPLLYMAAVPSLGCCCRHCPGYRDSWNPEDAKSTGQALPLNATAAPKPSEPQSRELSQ

P2Y11 receptor [2] = target: T1, P2Y11 receptor; test: Multiplex DAG2 and R-GECO1 sensors with P2Y11 receptor in HEK 293 cells; type: cell-based; parameters: expressed in transfected cells; host or cells: HEK 293; settings: HEK cells expressing human P2Y11 receptor
Excerpt: To explore whether multiplex sensors could be used to detect this distinct signaling pattern, we expressed the human P2Y11 receptor with combinations of the Downward DAG2, or Upward DAG2, and R-GECO1 sensors. […] (FIG. 8).

DAG sensors [3] = test: Effect of DMSO on the DAG assay; type: cell-based
Description: Many compound libraries are carried by DMSO, a vehicle that can cause artifacts in live cell assays. […] At moderate final concentrations of 0.1 to 1%, the DMSO produced no effect, while at higher concentrations artifactual, DMSO triggered changes in fluorescence did occur. The effect of DMSO on the DAG sensors was negligible at final concentrations of 0.1 to 1%, but detectable at 2% or greater.

DAG sensors [4] = test: Direct activation of DAG sensors in cells by phorbol ester PDBu; type: cell-based
Excerpt: In transient expression it is possible to produce high concentrations of the protein-based sensor than the analyte itself [Falkenburger et al].
(§1) To test for the independence of the signals being detected by these sensors, we increased intracellular Ca2+ by applying ionomycin.

intracellular Ca2+ = test: Independence test: ionomycin raises intracellular Ca2+ in cells expressing Ca2+, DAG or PIP2 sensors; type: cell-based
Excerpt: as §1

DAG = DAG sensor fluorescence change on carbachol stimulation of co-expressed M1 receptor in HEK 293 cells (time-lapse imaging); type: cell-based, human
Excerpt: These changes were easily detected in time-lapse imaging and occurred in all transfected cells with remarkably little cell to cell variability. […] The signals then returned to baseline quite slowly (t-170 seconds, FIG. 3C).

PIP2 and DAG = test: Co-expressed PIP2r and DAG sensors, M1 receptor activation (PLC substrate and product); type: cell-based; settings: PIP2r co-expressed with DAG sensor, FIG. 7A
Excerpt: Stimulation of phospholipase C cleaves PIP2 and produces DAG. Co-expression of the Upward DAG2 or Downward DAG2 sensor with the PIP2r sensor provides a new view of both the substrate and product of phopholipase C (FIG. 7). To our knowledge, this is the first time that genetically encoded biosensors have been used to simultaneously measure substrate and product. M1 receptor activation produced a remarkable change in the intensity and distribution of both sensors. […] The onset of the response of the Upward and Downward DAG2 sensors, as well as PIP2r, is kinetically quite similar. However the return to baseline is considerably slower for the Downward DAG2 and PIP2r sensors (FIG. 7B).

PIP2 = PIP2 sensor response to M1 receptor activation; type: cell-based; settings: FIGS. 6A and B
Excerpt: Phospholipase C hydrolyses PIP2 to produce both DAG and IP3. To independently check the fidelity and kinetics of the DAG sensors, we created a red fluorescent PIP2 sensor by fusing the pleckstrin homology (PH) domain of PLCδ to two different components of the recently described dimerization-dependent red fluorescent proteins (26). Previous work has shown that the translocation of the PLCδ PH domain can be used to measure PIP2 turnover (27), and if the PH domains carry FRET pairs of fluorescent proteins a small change in FRET occurs when PLC is activated (28). […] Because this sensor relies on the fluorescence of one protein, rather than a FRET pair, it could be multiplexed with the green fluorescent DAG sensors for simultaneous measurement of both PIP2 and DAG in living cells. The amino acid sequences of this pair of constructs forming a novel PIP2 sensor are shown as SEQ ID NO:70 and SEQ ID NO:71, and the nucleotide sequences encoding them are shown as SEQ ID NO:72 and SEQ ID NO:73.

[5] = carbachol stimulation of the M1 receptor

Molecule: Nc1ncnc2c1ncn2[C@@H]1O[C@H](COP(=O)(O)OP(=O)(O)OP(=O)(O)O)[C@@H](O)[C@H]1O [ATP]
- signaling at the P2Y11 receptor as reported (P2Y11 receptor [1]): produces inositol phosphate turnover and transient Ca2+ signaling
- Ca2+ response (R-GECO1) (P2Y11 receptor [2]): triggered a Ca2+ response; also recorded: transient increase in Ca2+
- PLC pathway signaling (Upward or Downward DAG2 sensors) (P2Y11 receptor [2]): triggers signaling via the phospholipase C pathway; also recorded: activating the PLC pathway

Molecule: C[S+](C)[O-] [DMSO]
- effect of DMSO on the DAG sensors (DAG sensors [3]; 2% or greater): detectable
- effect of DMSO on the DAG sensors (DAG sensors [3]; final concentrations of 0.1 to 1%): negligible; also recorded: no effect

Molecule: CCCC(=O)O[C@@H]1[C@@H](C)[C@@]2(O)[C@@H](C=C(CO)C[C@]3(O)C(=O)C(C)=C[C@@H]23)[C@@H]2C(C)(C)[C@]12OC(=O)CCC [PDBu]
- additional change in sensor fluorescence on PDBu applied after carbachol (DAG sensors [4]; cells first stimulated with carbachol, then PDBu): additional increase in fluorescence; also recorded: additional doubling of the change in intensity
- activation of DAG sensor by PDBu added after ionomycin (DAG sensors [4]; subsequent addition after ionomycin, FIG. 4C): activates Downward DAG; also recorded: subsequently activated

Molecule: O=c1ccn([C@@H]2O[C@H](COP(=O)(O)OP(=O)(O)OP(=O)(O)O)[C@@H](O)[C@H]2O)c(=O)[nH]1 [UTP]
- signaling at the P2Y11 receptor as reported (P2Y11 receptor [1]): only triggers a Ca2+ response
- Ca2+ response (R-GECO1) (P2Y11 receptor [2]): triggered a Ca2+ response; also recorded: transient increase in Ca2+
- PLC pathway signaling (Upward or Downward DAG2 sensors) (P2Y11 receptor [2]): causing a Ca2+ transient in a very different way; also recorded: producing a Ca2+ transient through a different pathway

Molecule: C[C@H](CCC(=O)O)C[C@H](C)C[C@H](C)C(=O)/C=C(\O)[C@H](C)C[C@H](C)C/C=C/[C@@H](C)[C@@H](O)[C@@H](C)[C@@H](O)C[C@@H]1CC[C@@](C)([C@H]2CC[C@@](C)([C@@H](C)O)O2)O1 [ionomycin]
- effect of raising intracellular Ca2+ on DAG and PIP2 levels (intracellular Ca2+; ionomycin added before PdBU or M1 receptor activation, FIGS. 6C and D): no apparent effect on the DAG and PIP2 levels
- R-GECO (Ca2+ sensor) response (intracellular Ca2+; ionomycin applied, FIG. 4C): produces a change in R-GECO; also recorded: robust R-GECO1 response
- change in DAG sensor (intracellular Ca2+; ionomycin applied, FIG. 4C): not Downward DAG; also recorded: no detectable change in the DAG sensor

Molecule: Downward DAG: DAG sensor: cpEGFP at K152 of PKC delta truncated at L122; fluorescence decreases upon binding to DAG
- loss (decrease) in fluorescence (DAG; [5]): 40%
- time over which the fluorescence loss occurs (DAG; mean of 4 cells): 15 s

- change in sensor fluorescence on M1 receptor activation (PIP2 and DAG): green fluorescence increases
Molecule: Upward DAG: DAG sensor: cpEGFP at N158 of PKC delta truncated at L122; fluorescence increases upon binding to DAG
- fluorescence increase (DAG; [5]): 45%

- change in sensor fluorescence on M1 receptor activation (PIP2 and DAG): red fluorescence decreases
- red fluorescent signal at the membrane with M1 receptor activation (PIP2): rapidly disappeared
B1: PIP2 sensor: red fluorescent PIP2 sensor: PH domain of PLCδ fused to each member of the ddRFP pair (protein)
chain 1: MVSKSEEVIKEFMRFKVRLEGSMNGHEFEIEGEGEGRPYEGTQTAKLKVTKGGPLPFAWDILSPQIMYGSKAYVKHPADVPDYMKLSFPEGFKWERVMHFEDGGLVTVTQDTSLQDGTLIYKVKMRGTNFPPDGPVMQKKTLGWDYATERLYPEDGVLKGELLGRLKLKDGGLNLVEFKTIYMAKKPVQLPGYYFVDTKLGITSHNEDYTIVEQYERSEGRHHLGMDELYKRSRAQASNSAVDGTAGPGSMDSGRDFLTLHGLQDDEDLQALLKGSQLLKVKSSSWRRERFYKLQEDCKTIWQESRKVMRTPESQLFSIEDIQEVRMGHRTEGLEKFARDVPEDRCFSIVFKDQRNTLDLIAPSPADAQHWVLGLHKIIHHSGSMDQRQKLQHWIHSCLRKADKNKDNKMSFKELQNFLKELNIQ
chain 2: MVSKGEETIKEFMRFKVRMEGSMNGHEFEIEGEGEGRPYEGTQTAKLKVTKGGPLPFAWDILSPQFMYGSEAYVRHPADIPDYKKLPFPEGFKWERVMNFEDGGLVTVTQDSSLQDGTLICKVKMRGTNFPPDGPVMQKKTMGWEASTEMLYPEDGVLKGHSYQALKLKDGGHYLVEFETIYMAKKPVQLPGDYCVDTKLDITSHNEDYTIVEQYGRSEGRHRLGMDERYKRSRAQASNSAVDGTAGPGSMDSGRDFLTLHGLQDDEDLQALLKGSQLLKVKSSSWRRERFYKLQEDCKTIWQESRKVMRTPESQLFSIEDIQEVRMGHRTEGLEKFARDVPEDRCFSIVFKDQRNTLDLIAPSPADAQHWVLGLHKIIHHSGSMDQRQKLQHWIHSCLRKADKNKDNKMSFKELQNFLKELNIQ
modifications: Synthetic sequence, a.a. sequence of PIP2 sensor fragment [PIP2-A1]; Synthetic sequence, a.a. sequence of PIP2 sensor fragment [PIP2-B1]
notes: red fluorescent PIP2 sensor: PH domain of PLCδ fused to each member of the ddRFP pair
